Patent US10919938B2, “Modified cyclopentapeptides and uses thereof” (TECHNISCHE UNIVERSITÄT MÜNCHEN, priority 2014, dated 2021)
Read-outs that look alike come from different tables or passages of the source. Each block holds one compound with its values, some of them ahead of it. Non-standard residues stand in square brackets, D forms with d. Residues, ends and D or L forms follow the SMILES beside them. Groups on a side chain read outwards from the residue. *: point of attachment. DOTA(Ga) = O=C1CN2CCN3CCN(CC(=O)*)CCN(CC2)CC(=O)[O][Ga]([O]1)[O]C(=O)C3; DOTA = O=C(O)CN1CCN(CC(=O)O)CCN(CC(=O)*)CCN(CC(=O)O)CC1; 2Nal = N[C@@H](Cc1ccc2ccccc2c1)C(=O)O; dNMeOrn = CN[C@H](CCCN)C(=O)O; 4Amb = NCc1ccc(C(=O)O)cc1; 4Abz = Nc1ccc(C(=O)O)cc1; Ahx = NCCCCCC(=O)O

Experiments:
hCXCR4 [1] = target: T1, hCXCR4 (Homo sapiens, UniProt P61073); details: stated in text as had been shown; cited from earlier work
T1 construct: endogenous in cells; host or cells: Jurkat human T lymphocyte cells

hCXCR4 [2] = target: T1, hCXCR4; assay: Determination of IC50: competition against [^125I]FC-131 on Jurkat cells; type: binding; details: hCXCR4-expressing Jurkat T-cell leukemia cells, [^125I]FC-131 as radioligand, mean ± SD
Method: (§1) After washing twice with 400 piL of cold PBS, the amount of bound radioligand was quantified using a γ-counter. Nonspecific binding was determined in the presence of 1 μM FC131. IC50 values were calculated using the PRISM 4 program (Graph Pad Software, San Diego, Calif.).

hCXCR4 [3] = target: T1, hCXCR4; assay: Determination of inverse IC50: radioiodinated peptides against standard competitor FC-131 on Jurkat cells; type: binding; details: combining IC50 and inverse IC50 assays
Method: as §1
Experiments were performed in analogy the determination of IC50.

[4] = tested on: Daudi (high CXCR4) and SU-DHL-8 (low CXCR4) xenografts; assay: Dual tracer biodistribution study in tumor bearing SCID mice; details: i.v., 1 h p.i.
Method: (§6) For the induction of tumor growth, female CB-17 SCID mice (6-8 weeks, Charles River, Sulzfeld, Germany) were injected subcutaneously with app. 5×10^6 Daudi (right shoulder) or SU-DHL-8 (left shoulder) cells suspended in 100 μL of a 1:1 (v/v) mixture of serum free culture medium and Matrigel (BD Biosciences, Heidelberg, Germany). Within 10-21 days, solid palpable tumors had grown (100-800 mg), and the animals were used for the experiments.
(§7) The animals were sacrificed 90 min post injection (p.i.), and the organs of interest were dissected. The radioactivity was measured in weighted tissue samples using a γ-counter. Data are expressed in % ID/g tissue (mean±SD).

[5] = Determination of lipophilicity (octanol/PBS partition); type: physicochemical; details: octanol / PBS pH 7.4, radiolabeled peptide
Method: To a solution of app. 2 kBq of radiolabeled peptide in 500 tiL of PBS (pH 7.4), 500 μL of octanol were added (n=6). Vials were vortexed vigorously for 3 min. To achieve quantitative phase separation, the vials were centrifuged at 14,000×g for 6 min in a Biofuge 15 (Heraeus Sepatech, Osterode, Germany). The activity concentrations in 100 μL-samples of both the aqueous and the organic phase were measured in a γ-counter. Both the partition coefficient Pow, which is defined as the molar concentration ratio of a single species A between octanol and an aqueous phase at equilibrium, and log Pow, which is an important parameter used to characterize lipophilicity of a compound, were calculated.

Jurkat cells [6] = assay: Dual tracer internalization study (suspension cells), Jurkat; type: cell-based, human
Method: (§2) The total sample volume was 250 μL. After incubation, the tubes were centrifuged (3 min, 1300 rcf, Megafuge 1.0, Heraeus Thermo Scientific), the supernatant was carefully removed and combined with 200 μL of ice cold HBSS used for washing the cells (free radioligand). To remove surface bound (acid releasable) radioactivity, cells were then washed twice with ice cold acid wash buffer (0.02 M NaOAc in saline buffered with AcOH to pH=5). Finally, the amount of internalized activity in the cell pellet as well as the fraction of free and acid releasable ^68Ga-activity were determined using a γ-counter.

Daudi cells [7] = assay: Dual tracer internalization study (suspension cells), Daudi; type: cell-based, human; details: 30 min, 37° C., corrected for non-specific binding (100 μM AMD3100)
Method: as §2

SUDHL-8 cells = assay: Dual tracer internalization study (suspension cells), SUDHL-8; type: cell-based, human; details: SUDHL-8, 30 min, 37° C., corrected for non-specific binding (100 μM AMD3100)
Method: as §2

HT-29 cells [8] = assay: Dual tracer internalization study (adherent cells), HT-29; type: cell-based, human; details: HT-29, 30 min, 37° C., corrected for non-specific binding (100 μM AMD3100)
Method: (§3) 2·10^5 cells per well. On the day of the experiment, the culture medium was removed and the cells were washed once with 250 μL of unsupplemented medium before being left to equilibrate in 200 μL of assay medium at 37° C. for a minimum of 15 min before the experiment. […] (n=3 wells, respectively, per time point). Incubation was terminated by placing the plate on an ice pack for app. 1 min and by subsequent removal of the incubation medium. Cells were thoroughly rinsed with 250 μL of HBSS. After washing twice with 250 μL of ice cold acid wash buffer (0.02 M NaOAc buffered with AcOH to pH=5), cells were lysed with 250 μL of 1 N NaOH. The lysate was transferred to vials and combined with 250 μL of HBSS used for rinsing the wells. Quantification of the amount of free, acid-releasable and internalized activity was performed as described.

SH-SY5Y cells [9] = assay: Dual tracer internalization study (adherent cells), SH-SY5Y; type: cell-based, human; details: 30 min, 37° C., corrected for non-specific binding (100 μM AMD3100)
Method: as §3

MCF-7 cells [10] = assay: Dual tracer internalization study (adherent cells), MCF-7; type: cell-based, human; details: MCF-7, 30 min, 37° C., corrected for non-specific binding (100 μM AMD3100)
Method: as §3

DU-145 cells = assay: Dual tracer internalization study (adherent cells), DU-145; type: cell-based, human; details: DU-145, 30 min, 37° C., corrected for non-specific binding (100 μM AMD3100)
Method: as §3

Jurkat cells [11] = assay: Dual tracer externalization study (suspension cells), Jurkat; type: cell-based, human
Method: (§4) To ensure receptor integrity, no acid wash was performed after this initial internalization incubation. Then, to determine the extent of ligand recycling, two different experiments were performed. In the experiment allowing ligand recycling, 250 μL of assay medium were added to each well. […] Experiments were carried out in triplicate for both experimental conditions. Subsequently, the cells were incubated for 5, 15, 30 and 60 minutes at 37° C. Then, the tubes were centrifuged, the supernatant was removed and combined with 250 μL of HBSS used for washing the cells. This fraction represents the amount of externalized ligand. The following steps, i.e. acid wash and quantification of the remaining cellular activity, were performed as described for the internalization experiment.

Daudi cells [12] = assay: Dual tracer externalization study (suspension cells), Daudi; type: cell-based, human
Method: as §4

HT-29 cells [13] = assay: Dual tracer externalization study (adherent cells), HT-29; type: cell-based, human
Method: (§5) In the experiment allowing ligand recycling 250 µL of assay medium were added to the wells (n=3). […] Subsequently, cells were incubated at 37° C. for 5, 15, 30 and 60 min, respectively. The supernatant was removed and combined with 250 μL of HBSS used for rinsing the cells. This fraction represents the amount of externalized ligand at the respective time point. The following lysis of the cells was performed as desribed for the internalization experiment.

SH-SY5Y cells [14] = assay: Dual tracer externalization study (adherent cells), SH-SY5Y; type: cell-based, human
Method: as §5

MCF-7 cells [15] = assay: Dual tracer externalization study (adherent cells), MCF-7; type: cell-based, human
Method: as §5

[16] = tested on: CXCR4 expressing cell lines; assay: Dual tracer internalization studies in various human cancer cell lines; type: cell-based; details: in all cell lines
Method: as §2
as §3, with “The lysate was transferred to vials and combined with 250 μL of HBSS used for rinsing the wells.” left out

[17] = tested on: Daudi (high CXCR4) and SU-DHL-8 (low CXCR4) xenografts; details: mouse, in vivo, iv
Method: as §6, §7

[18] = recycling allowed (medium only)
[19] = recycling inhibited (100 μM AMD3100)

T1 sequence (P61073 whole entry): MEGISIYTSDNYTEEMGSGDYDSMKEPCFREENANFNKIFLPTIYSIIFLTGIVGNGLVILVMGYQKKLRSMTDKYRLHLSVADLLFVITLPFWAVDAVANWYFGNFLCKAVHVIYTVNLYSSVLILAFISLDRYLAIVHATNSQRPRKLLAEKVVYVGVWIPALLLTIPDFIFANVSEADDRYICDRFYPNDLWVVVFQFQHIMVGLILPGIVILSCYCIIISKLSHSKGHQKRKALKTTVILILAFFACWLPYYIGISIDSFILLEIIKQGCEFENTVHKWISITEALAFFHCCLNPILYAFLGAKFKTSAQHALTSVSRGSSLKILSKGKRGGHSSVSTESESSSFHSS

Compound: 3-iodo-D-Tyr^1-FC-131
- IC50 (hCXCR4 [1]): 1.3 nM

Compound: CN1C(=O)[C@@H](Cc2ccc(O)cc2)NC(=O)CNC(=O)[C@H](Cc2ccc3ccccc3c2)NC(=O)[C@H](CCCNC(=N)N)NC(=O)[C@H]1CCCNC(=O)c1ccc(NC(=O)CCCCCNC(=O)CN2CCN3CCN4CCN(CC2)CC(=O)[O][Ga]([O]C(=O)C3)[O]C(=O)C4)cc1 [yorn′(ABS, Ahx, DOTA, Ga)RNalG] (cyclo([2Nal]G[dY][dNMeOrn]([4Abz-Ahx-DOTA(Ga)])R))
- IC50 (hCXCR4 [2]): 30.3 ± 6.52 nM

Compound: CN1C(=O)[C@@H](Cc2ccc(O)cc2)NC(=O)CNC(=O)[C@H](Cc2ccc3ccccc3c2)NC(=O)[C@H](CCCNC(=N)N)NC(=O)[C@H]1CCCNC(=O)c1ccc(CNC(=O)CN2CCN3CCN4CCN(CC2)CC(=O)[O][Ga]([O]C(=O)C3)[O]C(=O)C4)cc1 [yorn′(AMBS, DOTA, Ga)RNalG] (cyclo([2Nal]G[dY][dNMeOrn]([4Amb-DOTA(Ga)])R))
- increase in CXCR4 affinity by (radio)iodination, factor (hCXCR4 [3]): ~20

Compound: [^125I]yorn′(ABS, Avs, DOTA, Lu)RNalG
- Log PO/PBS [5]: −1.23

Compound: [^125I]yorn′(ABS, G, DOTA, Lu)RNalG
- Log PO/PBS [5]: −1.28

Compound: [^125I]yorn′(AMBS, DOTA, In)RNalG
- Log PO/PBS [5]: −1.39

Compound: yorn′(ABS, Ahx, DOTA, In)RNalG
- IC50 (hCXCR4 [2]): 26.5 ± 22.6 nM

Compound: yorn′(ABS, G, DOTA, Ga)RNalG
- IC50 (hCXCR4 [2]): 16.7 ± 3.28 nM

Compound: yorn′(AMBS, DOTA, In)RNalG
- IC50 (hCXCR4 [2]): 44.9 ± 10.4 nM

Compound: yorn′(DOTA, In)RNalG
- IC50 (hCXCR4 [2]): > 1000 nM

The next lines start with results.

- tumor-to-non-tumor ratios (in words) [4]: comparable
Compound: CN1C(=O)[C@@H](Cc2ccc(O)cc2)NC(=O)CNC(=O)[C@H](Cc2ccc3ccccc3c2)NC(=O)[C@H](CCCNC(=N)N)NC(=O)[C@H]1CCCNC(=O)c1ccc(CNC(=O)CN2CCN(CC(=O)O)CCN(CC(=O)O)CCN(CC(=O)O)CC2)cc1 [yorn′(AMBS, DOTA, ^68Ga)RNalG, metal not drawn] (cyclo([dY][dNMeOrn]([4Amb-DOTA])R[2Nal]G))

- Log PO/PBS [5]: −1.37
Compound: [^125I]yorn′(ABS, DOTA, In)RNalG

- Log PO/PBS [5]: −1.56
- tumor-to-non-tumor ratios (in words) [17]: comparable
Compound: [^125I]yorn′(AMBS, DOTA, Ga)RNalG
- fraction of membrane bound activity versus internalized activity (in words) (Jurkat cells [6]; Jurkat cells, comparable for the other cell lines): considerably higher
- Internalization efficiency (internalized activity in % of total cellular activity) (Jurkat cells [6]; Jurkat, 30 min, 37° C., corrected for non-specific binding (100 μM AMD3100)): 27.4 ± 2.0 % of total cellular activity
- Internalization efficiency (internalized activity in % of total cellular activity) (Daudi cells [7]): 51.3 ± 4.4 % of total cellular activity
- Internalization efficiency (internalized activity in % of total cellular activity) (SUDHL-8 cells): 29.9 ± 5.2 % of total cellular activity
- Internalization efficiency (internalized activity in % of total cellular activity) (HT-29 cells [8]): 77.9 ± 4.6 % of total cellular activity
- Internalization efficiency (internalized activity in % of total cellular activity) (SH-SY5Y cells [9]): 57.3 ± 7.1 % of total cellular activity
- Internalization efficiency (internalized activity in % of total cellular activity) (MCF-7 cells [10]): 37.6 ± 3.7 % of total cellular activity
- Internalization efficiency (internalized activity in % of total cellular activity) (DU-145 cells): 69.1 ± 18.2 % of total cellular activity
- Residual internalized activity after a 60 min externalization incubation (Jurkat cells [11]; [18]): 8.0 ± 2.0 % of total cellular activity at t = 0
- Residual internalized activity after a 60 min externalization incubation (Jurkat cells [11]; [19]): 3.7 ± 1.3 % of total cellular activity at t = 0
- Residual internalized activity after a 60 min externalization incubation (Daudi cells [12]; [18]): 14.5 ± 2.0 % of total cellular activity at t = 0
- Residual internalized activity after a 60 min externalization incubation (Daudi cells [12]; [19]): 7.0 ± 0.5 % of total cellular activity at t = 0
- Residual internalized activity after a 60 min externalization incubation (HT-29 cells [13]; HT-29, recycling allowed (medium only)): 13.5 ± 2.6 % of total cellular activity at t = 0
- Residual internalized activity after a 60 min externalization incubation (HT-29 cells [13]; HT-29, recycling inhibited (100 μM AMD3100)): 10.5 ± 2.5 % of total cellular activity at t = 0
- ligand recycling (in words) (HT-29 cells [13]; HT-29 cells, nearly identical results for the other cell lines): almost no ligand recycling
- Residual internalized activity after a 60 min externalization incubation (SH-SY5Y cells [14]; [18]): 11.2 ± 2.5 % of total cellular activity at t = 0
- Residual internalized activity after a 60 min externalization incubation (SH-SY5Y cells [14]; [19]): 7.8 ± 1.0 % of total cellular activity at t = 0
- Residual internalized activity after a 60 min externalization incubation (MCF-7 cells [15]; MCF-7, recycling allowed (medium only)): 10.4 ± 1.4 % of total cellular activity at t = 0
- Residual internalized activity after a 60 min externalization incubation (MCF-7 cells [15]; MCF-7, recycling inhibited (100 μM AMD3100)): 8.7 ± 1.1 % of total cellular activity at t = 0
- internalization compared to yorn′(AMBS, DOTA, ^68Ga)RNalG (in words) [16]: significantly higher internalization

- Log PO/PBS [5]: −1.38
Compound: [^125I]yorn′(AMBS, DOTA, Lu)RNalG

- Log PO/PBS [5]: −0.35
Compound: cyclo(-D-Tyr^1[^125I]-Arg^2-Arg^3-Na1^4-Gly^5 [[^125I]FC-131, reference compound]
